The values below come from PMC4737580 (Bioorganic & medicinal chemistry letters, 2010).

One series addresses furin (Homo sapiens, UniProt P09958). The series can be described thus: Furin inhibition, Ki from Dixon plots. The format is biochemical.
For series [1] the following is noted: general statement, no reference given; cited from earlier work.

As a reminder, the Ki is a dissociation constant, usually derived from enzyme kinetics or from competition with a known ligand. A low value points to a stronger hold on the target.

Sequence of furin (P09958 108-794): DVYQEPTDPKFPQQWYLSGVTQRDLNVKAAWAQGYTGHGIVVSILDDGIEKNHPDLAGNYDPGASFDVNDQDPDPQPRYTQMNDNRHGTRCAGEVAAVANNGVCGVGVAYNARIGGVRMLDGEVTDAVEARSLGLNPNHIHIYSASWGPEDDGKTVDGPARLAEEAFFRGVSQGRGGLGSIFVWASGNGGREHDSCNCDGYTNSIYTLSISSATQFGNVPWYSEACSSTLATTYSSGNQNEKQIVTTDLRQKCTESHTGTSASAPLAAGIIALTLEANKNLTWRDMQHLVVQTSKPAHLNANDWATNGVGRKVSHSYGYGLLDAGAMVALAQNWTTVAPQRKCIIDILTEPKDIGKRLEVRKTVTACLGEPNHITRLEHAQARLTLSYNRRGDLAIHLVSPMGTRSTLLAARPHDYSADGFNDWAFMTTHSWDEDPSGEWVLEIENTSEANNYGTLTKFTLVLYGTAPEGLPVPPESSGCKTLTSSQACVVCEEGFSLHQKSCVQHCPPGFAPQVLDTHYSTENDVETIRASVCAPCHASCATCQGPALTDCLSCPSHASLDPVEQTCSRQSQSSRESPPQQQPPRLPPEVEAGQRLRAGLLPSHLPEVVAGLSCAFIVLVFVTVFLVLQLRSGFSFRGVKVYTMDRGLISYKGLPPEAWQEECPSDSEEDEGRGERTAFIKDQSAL

In the case of `N=C(N)N/N=C/c1ccccc1OCc1ccc(Cl)cc1` [Compound 2], the Ki at furin (Ki, Ki values from Dixon plots) turned out to be 25 µM. That is a double-digit micromolar value.

Consider `N=C(N)N` [guanidine], for which, in series [1], the pKa entry is listed as “approximately 13”.

For the compound `C/C(=N\NC(=N)N)c1cc(NC(=O)CCCNC(=N)N)cc(/C(C)=N/NC(=N)N)c1` [Compound 17], the “fold improved Ki compared to 1” value on furin (relative to compound 1) is “approximately 4 fold”.
